Data from patent US12077503B2, “Substituted cyclic amides and their use as herbicides” (FMC CORPORATION, priority 2015, dated 2024).

Legend:
Assay type in all cases: in vivo
[1] = system: barnyardgrass (Echinochloa crus-galli); assay: Test G Pre-Emergence Protocol; details: Echinochloa crus-galli, pre-emergence, 312 h, evaluated after 13 days
In short: (§1)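 Pots of seeds in standard soil were grown for one day in a glasshouse (24/16 °C day/night, 14 h light, 65% humidity), then sprayed with compound in acetone/water 50:50 with 0.5% Tween 20 at 15.625, 62.5 or 250 g/ha. Damage was scored after 13 days on a 0 (none) to 100 (total) scale.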

[2] = system: corn (Zea mays); assay: Test G Pre-Emergence Protocol; details: Zea mays, pre-emergence, 312 h, evaluated after 13 days
In short: as §1

[3] = system: giant foxtail (Setaria faberi); assay: Test G Pre-Emergence Protocol; details: Setaria faberi, pre-emergence, 312 h, evaluated after 13 days
In short: as §1

[4] = system: ivy-leaved morning glory (Ipomoea hederacea); assay: Test G Pre-Emergence Protocol; details: Ipomoea, pre-emergence, 312 h, evaluated after 13 days
In short: as §1

[5] = system: redroot pigweed (Amaranthus retroflexus); assay: Test G Pre-Emergence Protocol; details: Amaranthus retroflexus, pre-emergence, 312 h, evaluated after 13 days
In short: as §1

[6] = system: velvetleaf (Abutilon theophrasti); assay: Test G Pre-Emergence Protocol; details: Abutilon theophrasti, pre-emergence, 312 h, evaluated after 13 days
In short: as §1

[7] = system: barnyardgrass (Echinochloa crus-galli); assay: Test G Post-Emergence Protocol; details: Echinochloa crus-galli, post-emergence, 312 h, read-out: Barnyardgrass damage rating
In short: (§2)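 Seedlings grown 8 days in soil in a glasshouse (24/16 °C day/night, 14 h light, 65% humidity) were sprayed post-emergence with compound in acetone/water 50:50 plus 0.5% Tween 20 at 15.625, 62.5 or 250 g/ha. Damage was scored after 13 days on a 0–100 scale (100 = total damage).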

[8] = system: corn (Zea mays); assay: Test G Post-Emergence Protocol; details: Zea mays, post-emergence, 312 h, read-out: Corn damage rating
In short: as §2

[9] = system: giant foxtail (Setaria faberi); assay: Test G Post-Emergence Protocol; details: Setaria faberi, post-emergence, 312 h, read-out: Foxtail, Giant damage rating
In short: as §2

[10] = system: ivy-leaved morning glory (Ipomoea hederacea); assay: Test G Post-Emergence Protocol; details: Ipomoea, post-emergence, 312 h, read-out: Morningglory, Ivy-leaved damage rating
In short: as §2

[11] = system: redroot pigweed (Amaranthus retroflexus); assay: Test G Post-Emergence Protocol; details: Amaranthus retroflexus, post-emergence, 312 h, read-out: Pigweed, Redroot damage rating
In short: as §2

[12] = system: velvetleaf (Abutilon theophrasti); assay: Test G Post-Emergence Protocol; details: Abutilon theophrasti, post-emergence, 312 h, read-out: Velvetleaf damage rating
In short: as §2

[13] = 15.625 g ai/ha, evaluated after 13 days (100=total damage to plant; 0=no damage to plant)
[14] = 62.5 g ai/ha, evaluated after 13 days, 100=total damage to plant, 0=no damage to plant
[15] = 250 g ai/ha, evaluated after 13 days, 100=total damage to plant, 0=no damage to plant

## CN1C[C@H](c2ccc(Cl)cc2)[C@@H](C(=O)Nc2ccc(F)nc2F)C1=O [Compound 1811]
[1]; 15.625 g ai/ha, read-out: Barnyardgrass damage rating (100=total damage to plant; 0=no damage to plant)
  pest or weed control at 15.625 g/ha: 80%
[1]; 62.5 g ai/ha, 100=total damage to plant, 0=no damage to plant, read-out: Barnyardgrass damage rating
  pest or weed control at 62.5 g/ha: 90%
[1]; 250 g ai/ha, read-out: Barnyardgrass damage rating (100=total damage to plant; 0=no damage to plant)
  pest or weed control at 250 g/ha: 90%
[2]; 15.625 g ai/ha, read-out: Corn damage rating (100=total damage to plant; 0=no damage to plant)
  plant injury at 15.625 g/ha: 0%
[2]; 62.5 g ai/ha, 100=total damage to plant, 0=no damage to plant, read-out: Corn damage rating
  plant injury at 62.5 g/ha: 70%
[2]; 250 g ai/ha, read-out: Corn damage rating (100=total damage to plant; 0=no damage to plant)
  plant injury at 250 g/ha: 80%
[3]; 15.625 g ai/ha, read-out: Foxtail, Giant damage rating (100=total damage to plant; 0=no damage to plant)
  pest or weed control at 15.625 g/ha: 90%
[3]; 62.5 g ai/ha, 100=total damage to plant, 0=no damage to plant, read-out: Foxtail, Giant damage rating
  pest or weed control at 62.5 g/ha: 90%
[3]; 250 g ai/ha, read-out: Foxtail, Giant damage rating (100=total damage to plant; 0=no damage to plant)
  pest or weed control at 250 g/ha: 90%
[4]; 15.625 g ai/ha, read-out: Morningglory, Ivy-leaved damage rating (100=total damage to plant; 0=no damage to plant)
  pest or weed control at 15.625 g/ha: 0%
[4]; 62.5 g ai/ha, 100=total damage to plant, 0=no damage to plant, read-out: Morningglory, Ivy-leaved damage rating
  pest or weed control at 62.5 g/ha: 20%
[4]; 250 g ai/ha, read-out: Morningglory, Ivy-leaved damage rating (100=total damage to plant; 0=no damage to plant)
  pest or weed control at 250 g/ha: 80%
[5]; 15.625 g ai/ha, read-out: Pigweed, Redroot damage rating (100=total damage to plant; 0=no damage to plant)
  pest or weed control at 15.625 g/ha: 30%
[5]; 62.5 g ai/ha, 100=total damage to plant, 0=no damage to plant, read-out: Pigweed, Redroot damage rating
  pest or weed control at 62.5 g/ha: 70%
[5]; 250 g ai/ha, read-out: Pigweed, Redroot damage rating (100=total damage to plant; 0=no damage to plant)
  pest or weed control at 250 g/ha: 80%
[6]; 15.625 g ai/ha, read-out: Velvetleaf damage rating (100=total damage to plant; 0=no damage to plant)
  pest or weed control at 15.625 g/ha: 10%
[6]; 62.5 g ai/ha, 100=total damage to plant, 0=no damage to plant, read-out: Velvetleaf damage rating
  pest or weed control at 62.5 g/ha: 50%
[6]; 250 g ai/ha, read-out: Velvetleaf damage rating (100=total damage to plant; 0=no damage to plant)
  pest or weed control at 250 g/ha: 70%
[7]; [13]
  pest or weed control at 15.625 g/ha: 80%
[7]; [14]
  pest or weed control at 62.5 g/ha: 80%
[7]; [15]
  pest or weed control at 250 g/ha: 80%
[8]; [13]
  plant injury at 15.625 g/ha: 40%
[8]; [14]
  plant injury at 62.5 g/ha: 60%
[8]; [15]
  plant injury at 250 g/ha: 80%
[9]; [13]
  pest or weed control at 15.625 g/ha: 80%
[9]; [14]
  pest or weed control at 62.5 g/ha: 80%
[9]; [15]
  pest or weed control at 250 g/ha: 80%
[10]; [13]
  pest or weed control at 15.625 g/ha: 40%
[10]; [14]
  pest or weed control at 62.5 g/ha: 20%
[10]; [15]
  pest or weed control at 250 g/ha: 70%
[11]; [13]
  pest or weed control at 15.625 g/ha: 20%
[11]; [14]
  pest or weed control at 62.5 g/ha: 60%
[11]; [15]
  pest or weed control at 250 g/ha: 80%
[12]; [13]
  pest or weed control at 15.625 g/ha: 10%
[12]; [14]
  pest or weed control at 62.5 g/ha: 30%
[12]; [15]
  pest or weed control at 250 g/ha: 50%
